These results are taken from patent US20140288115A1, “COMPOSITIONS AND METHODS FOR TREATING BRAIN CANCER” (UNIVERSITY OF SOUTHERN CALIFORNIA, priority 2011, published 2014).

Data set [1] has as its system TMZ-resistant glioma cell lines. The data set can be described thus: cytotoxicity of noscapine in TMZ-resistant glioma cell lines. The data set is classed as cell-based.
Data set [2] has as its system TMZ-resistant tumor cells. In words: migration and invasion of TMZ-resistant tumor cells. The data set is classed as cell-based.
Data set [3] relates to TMZ-resistant U251 glioma cells. The data set can be described thus: intracranial rodent xenograft tumor model, survival. Format: in vivo, nude mice. From the text: TMZ-resistant U251 glioma cells (R) were implanted intracranially into nude mice. After 7 days, treatment was initiated. […] Survival was used as an endpoint; * signifies statistical significance (p<0.05).
After 7 days, treatment was initiated.

For data set [4] the following is noted: in vivo, cited from earlier work.

With `COc1ccc2c(c1OC)C(=O)O[C@@H]2[C@H]1c2c(cc3c(c2OC)OCO3)CCN1C` [noscapine, (3S)-6,7-Dimethoxy-3-[(5R)-5,6,7,8-tetrahydro-4-methoxy-6-methyl-1,3-dioxolo (4,5-g)isoquinolin-5-yl]-1(3H)-isobenzofuranone], the cell death entry in data set [1] (4 different TMZ-resistant glioma cell lines) is recorded as “caused cell death”. In addition, the cell cycle arrest result in data set [1] (TMZ-resistant glioma cell lines, prolonged arrest causes cell cytotoxicity) is on record as “caused an arrest in the G2/M phase of cell cycle”. Further, in data set [2], the “invasion of TMZ-resistant tumor cells” value is “decreased” and the “migration of TMZ-resistant tumor cells” value is given as “decreased”. In data set [3] (animal models), the tumor growth result is on record as “reduced tumor growth”. For the same molecule, the “survival of TMZ-resistant tumor bearing animals” value in data set [3] (noscapine 225 mg/kg twice daily by gavage, treatment from day 7 after implantation) is “significantly enhanced survival”. For the same molecule, the oral bioavailability result in data set [4] (po) is given as “orally bioavailable”. Further, the “crossing of the blood-brain-barrier” value in data set [4] is “known to cross the blood-brain-barrier”.
